Results from patent US20140370520A1, “METHODS AND COMPOUNDS FOR DETECTING CANCER” (University College Cardiff Constultants Limited, priority 2010, published 2014).
Several values for one entry are separate records, joined by “and”; a condition that tells them apart may be missing. Equal entries are not always repeated.

How the values were obtained:
hNQO1 [1] = biological target: T1, hNQO1 (Homo sapiens, UniProt P15559); experiment: Activity of 4-MU and Lactone with hNQO1; format: biochemical; settings: 0.1 mM, NADH 0.5 mM, hNQO1, phosphate buffer pH 7, 37° C. (FIG. 6)
T1 sequence (P15559 whole entry): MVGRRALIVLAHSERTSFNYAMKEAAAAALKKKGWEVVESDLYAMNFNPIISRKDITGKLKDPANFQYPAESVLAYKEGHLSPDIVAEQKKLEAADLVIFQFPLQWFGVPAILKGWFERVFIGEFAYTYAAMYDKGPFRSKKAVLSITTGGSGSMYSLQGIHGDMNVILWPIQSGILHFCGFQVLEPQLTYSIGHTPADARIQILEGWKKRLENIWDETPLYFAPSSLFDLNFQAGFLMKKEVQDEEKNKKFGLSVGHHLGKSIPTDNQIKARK
Description: This experiment was performed to ensure the products of activation were not further metabolised by hNQO1. HPLC was carried out on samples containing 4-MU and Lactone (0.1 mM), NADH (0.5 mM) and hNQO1 (0.2 μg) in phosphate buffer (10 mM, pH 7) using a 1-99% acetonitrile gradient and a 2 μl injection volume. Temperature was maintained at 37° C.

hNQO2 in PC3 cells = biological target: T2, hNQO2 in PC3 cells (Homo sapiens, UniProt P16083); experiment: Discrimination between NQO1 and NQO2 activity in PC3 cells with co-substrate EP-0152R; format: cell-based; settings: 5×10^5 PC-3 cells, 10 uM MTL8-252, 100 uM EP-0152R, 37° C., 5 min (FIG. 14)
T2 construct: Prostate carcinoma cells (as exemplified by PC3 cells) express both NQO1 and NQO2 activity; endogenous in cells; host or cells: PC3 (PC-3) human prostate cancer cell line
T2 sequence (P16083 1-231): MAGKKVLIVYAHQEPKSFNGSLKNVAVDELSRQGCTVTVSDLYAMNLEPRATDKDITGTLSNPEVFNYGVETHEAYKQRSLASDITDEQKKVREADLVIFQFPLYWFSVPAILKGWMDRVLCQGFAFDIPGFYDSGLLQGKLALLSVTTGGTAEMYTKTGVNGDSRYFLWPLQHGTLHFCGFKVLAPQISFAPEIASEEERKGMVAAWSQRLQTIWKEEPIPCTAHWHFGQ
Description: Prostate carcinoma cells (as exemplified by PC3 cells) express both NQO1 and NQO2 activity. However, the latter is only activated by the presence of a co-substrate not naturally present in the cells (EP-0152R, 1-carbamoylmethyl-3-carbamoyl-1,4-dihydronicotinamide).
To 440 ul of PBS containing 5×10^5 PC-3 cells pre-incubated at 37° C. for 5 min was added 10 uM MTL8-252 fluorogenic substrate in DMSO (final, 10 ul) and volume adjusted to 500 ul with PBS. After incubating for a further 5 min the mixture was syringe filtered as above and 2 ul of supernatant analysed by uplc as described earlier. The reaction on the same number of cells was repeated with the inclusion of 100 uM EP-0152R (50 ul) as co-substrate during incubation. The reaction mixture was filtered and analysed as above. […] In the former instance, where NQO1 and NQO2 are expressed, the supplemented assay can be used to provide a stronger assay signal and in the latter instance, where only NQO2 is expressed, the supplemented assay can be used to detect hNQO2 expressing cancers only.

[2] = Stability of MTL8-252 in PBS and cell culture media with or without FBS; format: physicochemical
Source text: Possible source is from FBS added in media.

[3] = biological target: T3, Human NQO1 expressing cells (HDT7) (Homo sapiens, UniProt P15559); experiment: MTL8-252 incubation with cultured cells, luminescence spectrophotometric determination of 4-MU; format: cell-based
T3 construct: expressed in transfected cells; host or cells: HDT7 (engineered NQO1-producing cell line; F179 is the null control)
T3 sequence (P15559 whole entry): as the sequence (P15559 whole entry) above
Description: (§1) Human NQO1 expressing cells (HDT7) and null expressing cells (F179) were cultured in Eagle's MEM medium enriched with non-essential amino acids and 10% FBS. Cells were harvested in exponential growing phase and suspended in cold PBS @ 5×10^6 cells/ml. 100 ul of cell suspension (5×10^5 cells) were added to 3 ml PBS containing 10 uM MTL8-252 at 37° C. in a fluorimeter cuvette and the rate of increase in fluorescence intensity (attributed to 4-MU release), measured over 3 minutes. Control experiment contained substrate alone in PBS.
(§2) The Luminescence Spectrophotometer settings were as follows: λex=360 nm; λem=452 @ 37° C.

[4] = system: null expressing cells (F179); experiment: as above; format: cell-based; settings: F179 2.5×10^5 cells/mL, luminescence spectrophotometer
Description: as §1, §2

[5] = Stability of MTL8-252 in NMP and sodium phosphate buffer; format: physicochemical
Description: Stability of 0.1M MTL8-252 in NMP was assessed over a 2-hour period at 37° C. The compound appeared stable as evidenced by the fact that the uv absorbance peak area remained substantially unchanged. […] A similar experiment was carried out with DMSO stock diluted in 10 mM sodium phosphate buffer.

[6] = biological target: T4, hDT7 NQO1-expressing cell line (Homo sapiens, UniProt P15559); experiment: MTL8-252 incubation with cultured cells, uplc separation followed by FL-Plus detection; format: cell-based
T4 construct: expressed in transfected cells; host or cells: HDT7 (engineered NQO1-producing cell line; F179 is the null control)
T4 sequence (P15559 whole entry): as the sequence (P15559 whole entry) above
Description: (§3) Cells in exponential growth phase were harvested and resuspended in cold PBS at 5×10^6 cells/ml. 100 ul of cell suspension (5×10^5 cells) were added to 1 ml PBS containing 10 uM MTL8-252 at 37° C. and incubated for the following time periods: 0, 5, 30 and 60 min. The reaction was stopped by spinning down cells at 13,000 rpm for 30 seconds and the cell free extract injected (2 ul) directly unto the uplc.

[7] = system: null expressing cell line F179; experiment: as above; format: cell-based; settings: MTL8-252 10 μM in PBS, 5×10^5 cells/mL
Description: as §3

[8] = Control experiment: substrate alone without cells, 4-MU release; format: physicochemical
[9] = Solubility of MTL8-252 in NMP and DMSO; format: physicochemical
Description: NMP Solubility: A solution of the product of Example 3D (MTL8-252) was prepared in NMP and further diluted to 0.1M in NMP. The purity of the compound was assessed via uplc using a 1-99% Acetonitrile gradient. Injection volumes of 0.5 μl, 1 μl, 2 μl, 3 μl and 5 μl were used. Purity was determined to be almost 100% based on uv data at 265 nm. The FL Plus settings were (high PMT voltage, λex 410 nm and λem 550 nm, off peak). Only a single peak with retention time of approx 4.3 min was detected. MTL8-252 was equally very soluble in DMSO.
A similar result was obtained for the diluted DMSO stock. Subsequent experiments utilised 0.1M diluted stock in 10 mM phosphate buffer, pH 7.0 and injected directly onto the uplc column

hNQO1 [10] = biological target: T1, hNQO1; experiment: Evaluation of MTL8-252 activity with human NQO1 (HPLC/UPLC, UV and fluorescence detection); format: biochemical
hNQO1 [11] = biological target: T1, hNQO1; experiment: as above; format: biochemical; remark: listed apart in the source
Description: Initial HPLC was carried out on samples containing MTL8-252 (0.1 mM), NADH (0.5 mM) and 0.5 μg/ml hNQO1 in phosphate buffer (10 mM, pH 7) using a 1-99% acetonitrile gradient and a 1 μl injection volume. Temperature was maintained at 37° C.
Reduction of the parent compound was rapid as most of it had disappeared by the second injection. […] The rate of reduction in MTL8-252 concentration was calculated at 5.9 μM/min and when the concentration of the enzyme was halved the rate reduced to 1.5 μM/min
By altering the settings of the FL Plus detector (Low PMT voltage, λex 410 nm, λem 550 nm) and calibrating for 4-MU measurements by establishing a calibration graph it can be seen that there was a linear response to 4-MU up to at least 200 μM. The maximum concentration used in incubation experiments is 100 μM, final.
Following calibration of the instrument, a repeat experiment of the activation of MTL8-252 by hNQO1 was carried out resulting in calculated rates of loss of MTL8-252 and formation of 4-MU (see FIG. 4). Rate loss of MTL8-252 was 8.41 uM/min and that corresponding to 4-MU formation determined by fluorescence was 13.51 uM/min.

[12] = repeat experiment after calibration (FIG. 4)
[13] = replots of UV data at 210 nm (FIG. 5)

## Cc1cc(=O)oc2cc(O)ccc12 [Compound 4-MU, 4-methylumbelliferone, reference compound]
hNQO1 [1]
  substrate of / stability in the presence of hNQO1: not substrates of hNQO1
hNQO1 [1]; listed as 4 MU
  substrate of / stability in the presence of hNQO1: stable in the presence of hNQO1

## CC1=C(C)C(=O)C(C(C)(C)CC(=O)Oc2ccc3c(C)cc(=O)oc3c2)=C(C)C1=O [MTL8-252, 4-Methyl-2-oxo-2H-chromen-7-yl-3-methyl-3-(2,4,5-trimethyl-3,6-dioxocyclohexa-1,4-dienyl)butanoate]
hNQO2 in PC3 cells
  increase in the formation of 4-MU by addition of hNQO2 selective co-substrate: 1.2 fold
[2]; PBS
  stability in PBS (FIG. 9): very stable
[2]; PBS replaced with cell culture medium, possible source FBS
  stability in cell culture medium (FIG. 9): other components in the media can reduce MTL8-252
[2]; media without FBS
  stability in media without FBS (FIG. 9): very stable
[3]; FIG. 7, luminescence spectrophotometer
  increase in 4-MU formation rate, HDT7 compared with null expressing cells (F179): at least 5 fold
[3]; hDT7 2.5×10^5 cells/mL, luminescence spectrophotometer
  rate of formation of 4 MU in the hDT7 cells (FIG. 7): 0.83 nmol/min
[4]
  rate of formation of 4 MU in the F179 cells (FIG. 7): 0.18 nmol/min
[5]; 0.1M in NMP, 2-hour period at 37° C.
  release of 4-methylumbelliferone (4-MU) in NMP: No detectable release
[5]; 0.1M in NMP, 2-hour period at 37° C., uv absorbance peak area
  Stability in NMP: stable
[5]; DMSO stock diluted in 10 mM sodium phosphate buffer (FIG. 2)
  stability in 10 mM sodium phosphate buffer, time stable: at least 1 hr
[5]; phosphate buffer (10 mM), 37° C., monitored 75 mins (FIG. 2)
  stability in phosphate buffer, time stable: at least 1 hour
[6]; FIG. 8, uplc FL-Plus
  increase in activity of hNQO1 expressing cells over null expressing cells (initial rate): about 100 fold
[6]; MTL8-252 10 μM in PBS, 5×10^5 cells/mL, FL-Plus λex=360 nm λem=450 nm
  initial rate of release of 4 MU in hDT7 cells (FIG. 8): 6.1 µM/min
[7]
  initial rate of release of 4 MU in F179 cells (FIG. 8): 0.068 µM/min
[8]; MTL8-252 10 μM in PBS alone
  rate of release of 4 MU from the control experiment (FIG. 8): 0.002 µM/min
[8]; compound in urine alone, no cells
  rate of formation of 4 MU in the urine alone (FIG. 7): 0.32 nmol/min
[9]
  solubility in DMSO: very soluble
hNQO1 [10]; 0.2 μg/ml hNQO1, NADH
  rate of reduction in MTL8-252 concentration: 5.9 µM/min
hNQO1 [10]; concentration of the enzyme halved (0.10 μg/mL hNQO1)
  rate of reduction in MTL8-252 concentration: 1.5 µM/min
hNQO1 [11]; MTL8-252 100 μM, hNQO1 0.2 μg/mL, NADH 500 μM, UPLC
  rate of disappearance of Compound (FIG. 4): 13.51 µM/min
hNQO1 [11]; MTL8-252 alone or with NADH alone (FIG. 3)
  reduction in the area of the peak without enzyme: No significant reduction
hNQO1 [11]; UV at 210 nm, hNQO1 and NADH
  rate of appearance of 4 MU (FIG. 5): 11.5 µM/min
  rate of appearance of the lactone (FIG. 5): 9.84 µM/min
  rate of disappearance of MTL8-252 (FIG. 5): 8.41 µM/min
hNQO1 [11]; detected by fluorescence, MTL8-252 100 μM, hNQO1 0.2 μg/mL, NADH 500 μM
  rate of appearance of 4 MU (FIG. 4): 8.41 µM/min
hNQO1 [11]; initial rates, MTL8-252 0.1 mM, NADH 0.5 mM, hNQO1, pH 7, 37° C.
  Rate of formation of Lactone (n = 2): 9.84 µM/min and 7.61 µM/min
hNQO1 [11]; initial rates, MTL8-252 0.1 mM, NADH 0.5 mM, hNQO1, phosphate buffer 10 mM pH 7, 37° C.
  Rate of decrease in MTL8-252 concentration (n = 4): 5.9 µM/min and 6.21 µM/min and 8.41 µM/min and 9.05 µM/min
hNQO1 [11]; initial rates, UV 210 nm, MTL8-252 0.1 mM, NADH 0.5 mM, hNQO1, pH 7, 37° C.
  Rate of formation of 4-MU @ 210 nm (n = 2): 11.48 µM/min and 6.0 µM/min
hNQO1 [11]; initial rates, fluorescence detection, MTL8-252 0.1 mM, NADH 0.5 mM, hNQO1, pH 7, 37° C.
  Rate of formation of 4-MU by FL (n = 2): 13.51 µM/min and 6.90 µM/min
hNQO1 [11]; [12]
  4-MU formation determined by fluorescence: 13.51 µM/min
  Rate loss of MTL8-252: 8.41 µM/min
hNQO1 [11]; [13]
  initial rate of formation of 4-MU: 11.48 µM/min
  initial rate of formation of lactone: 9.84 µM/min
hNQO1 [11]; with NADH, pH 7, 37° C.
  substrate for hNQO1: excellent substrate for hNQO1

## Cc1c(C)c2c(c(C)c1O)C(C)(C)CC(=O)O2 [Lactone, 6-Hydroxy-4,4,5,7,8-pentamethyl-1-benzopyran-2-one]
hNQO1 [1]
  substrate of / stability in the presence of hNQO1: not substrates of hNQO1
hNQO1 [1]; listed as lactone
  substrate of / stability in the presence of hNQO1: stable in the presence of hNQO1
